Usually IC50 stands for the concentration that inhibits the measured activity by half.

Data set [1] addresses K-Ras G13C (Homo sapiens, UniProt P01116+P62937, G13C). Description: Raf-Ras (FRET or MOA) binding assay: disruption of BRAF RBD interaction with K-Ras G13C in presence of Cyclophilin A. It counts as biochemical. Conditions: read-out: IC50 in the Raf-Ras (FRET or MOA) binding assay re: K-Ras G13C. The protocol: As used herein, the term “linker” refers to a divalent organic moiety connecting a first moiety (e.g., a macrocyclic moiety) to a second moiety (e.g., a cross-linking group). […] Compound is present in plate wells as a 10-point 3-fold dilution series starting at a final concentration of 30 μM. After incubation at 25° C. for 3 hours, a mixture of Anti-His Eu-W1024 and anti-GST allophycocyanin is then added to assay sample wells at final concentrations of 10 nM and 50 nM, respectively, and the reaction incubated for an additional 1.5 hours. TR-FRET signal is read on a microplate reader (Ex 320 nm, Em 665/615 nm). Compounds that facilitate disruption of a Ras:RAF complex are identified as those eliciting a decrease in the TR-FRET ratio relative to DMSO control wells.
Disruption of B-Raf Ras-Binding Domain (BRAF RBD) Interaction with K-Ras by Compounds of the Invention (Also Called a FRET Assay or an MOA Assay)
Note—The following protocol describes a procedure for monitoring disruption of K-Ras G12C (GMP-PNP) binding to BRAF^RBD by a compound of the invention. This protocol may also be executed substituting other Ras proteins or nucleotides.
The purpose of this biochemical assay was to measure the ability of test compounds to facilitate ternary complex formation between a nucleotide-loaded K-Ras isoform and Cyclophilin A; the resulting ternary complex disrupts binding to a BRAF^RBD Construct, inhibiting K-Ras signaling through a RAF effector. Data was reported as IC50 values.
In assay buffer containing 25 mM HEPES pH 7.3, 0.002% Tween20, 0.1% BSA, 100 mM NaCl and 5 mM MgCl2, tagless Cyclophilin A, His6-K-Ras-GMPPNP, and GST-BRAF^RBD were combined in a 384-well assay plate at final concentrations of 25 μM, 12.5 nM and 50 nM, respectively. Compound was present in plate wells as a 10-point 3-fold dilution series starting at a final concentration of 30 μM. […] TR-FRET signal was read on a microplate reader (Ex 320 nm, Em 665/615 nm). […]

Data set [2] has as its system SW1573. Conditions: Canon et al., Nature 575:217-223 (2019); cited from earlier work.
Data set [3] deals with T1, K-Ras G12C (Homo sapiens, UniProt P01116+P62937, G12C).
T1 construct: endogenous in cells; host or cells: NCI-H358
Nature of the data set: pERK potency assay in NCI-H358 cells (AlphaLISA SureFire or In-Cell Western). Conditions: 4 hours incubation. Type of data set: cell-based. The protocol:
The purpose of this assay was to measure the ability of test compounds to inhibit K-Ras in cells. […] This procedure measures a decrease in cellular pERK in response to test compounds. The procedure described below in NCI-H358 cells is applicable to K-Ras G12C. […]
NCI-H358 cells were grown and maintained using media and procedures recommended by the ATCC. On the day prior to compound addition, cells were plated in 384-well cell culture plates (40 μl/well) and grown overnight in a 37° C., 5% CO2 incubator. Test compounds were prepared in 10, 3-fold dilutions in DMSO, with a high concentration of 10 mM. On the day of assay, 40 nL of test compound was added to each well of cell culture plate using an Echo550 liquid handler (LabCyte®). Concentrations of test compound were tested in duplicate. After compound addition, cells were incubated 4 hours at 37° C., 5% CO2. Following incubation, culture medium was removed and cells were washed once with phosphate buffered saline.
In some experiments, cellular pERK level was determined using the AlphaLISA SureFire Ultra p-ERK1/2 Assay Kit (PerkinElmer). Cells were lysed in 25 μL lysis buffer, with shaking at 600 RPM at room temperature. Lysate (10 μL) was transferred to a 384-well Opti-plate (PerkinElmer) and 5 μL acceptor mix was added. After a 2-hour incubation in the dark, 5 μL donor mix was added, the plate was sealed, and incubated 2 hours at room temperature. Signal was read on an Envision plate reader (PerkinElmer) using standard AlphaLISA settings. Analysis of raw data was carried out in Excel (Microsoft) and Prism (GraphPad). Signal was plotted vs. the decadal logarithm of compound concentration, and IC50 was determined by fitting a 4-parameter sigmoidal concentration response model.
In other experiments, cellular pERK was determined by In-Cell Western. Following compound treatment, cells were washed twice with 200 μL tris buffered saline (TBS) and fixed for 15 minutes with 150 μL 4% paraformaldehyde in TBS. Fixed cells were washed 4 times for 5 minutes with TBS containing 0.1% Triton X-100 (TBST) and then blocked with 100 μL Odyssey blocking buffer (LI-COR) for 60 minutes at room temperature. […] Cells were washed 4 times for 5 minutes with TBST. Secondary antibody (IR-800CW rabbit, LI-COR, diluted 1:800) and DNA stain DRAQ5 (LI-COR, diluted 1:2000) were added and incubated 1-2 hours at room temperature. Cells were washed 4 times for 5 minutes with TBST. Plates were scanned on a Li—COR Odyssey CLx Imager. Analysis of raw data was carried out in Excel (Microsoft) and Prism (GraphPad). Signal was plotted vs. the decadal logarithm of compound concentration, and IC50 was determined by fitting a 4-parameter sigmoidal concentration response model.

Data set [4] concerns NCI-H358 (K-Ras G12C). Nature of the data set: CellTiter-Glo cell viability assay, 5-day treatment, NCI-H358. Type of data set: cell-based. To be noted: Homo sapiens, NCI-H358, 120 h. The text has this:
Determination of Cell Viability in RAS Mutant Cancer Cell Lines
Protocol: CellTiter-Glo® Cell Viability Assay
Note—The following protocol describes a procedure for monitoring cell viability of K-Ras mutant cancer cell lines in response to a compound of the invention. Other RAS isoforms may be employed, though the number of cells to be seeded will vary based on cell line used.
The purpose of this cellular assay was to determine the effects of test compounds on the proliferation of three human cancer cell lines (NCI-H358 (K-Ras G12C), AsPC-1 (K-Ras G12D), and Capan-1 (K-Ras G12V)) over a 5-day treatment period by quantifying the amount of ATP present at endpoint using the CellTiter-Glo® 2.0 Reagent (Promega).
Cells were seeded at 250 cells/well in 40 μL of growth medium in 384-well assay plates and incubated overnight in a humidified atmosphere of 5% CO2 at 37° C. On the day of the assay, 10 mM stock solutions of test compounds were first diluted into 3 mM solutions with 100% DMSO. Well-mixed compound solutions (15 μL) were transferred to the next wells containing 30 μL of 100% DMSO, and repeated until a 9-concentration 3-fold serial dilution was made (starting assay concentration of 10 μM). Test compounds (132.5 nL) were directly dispensed into the assay plates containing cells. The plates were shaken for 15 seconds at 300 rpm, centrifuged, and incubated in a humidified atmosphere of 5% CO2 at 37° C. for 5 days. On day 5, assay plates and their contents were equilibrated to room temperature for approximately 30 minutes. CellTiter-Glo® 2.0 Reagent (25 μL) was added, and plate contents were mixed for 2 minutes on an orbital shaker before incubation at room temperature for 10 minutes. Luminescence was measured using the PerkinElmer Enspire. Data were normalized by the following: (Sample signal/Avg. DMSO)*100. The data were fit using a four-parameter logistic fit.
For orientation: Cellular ATP, detected with luciferase, serves as a proxy for viable cell number.

The conditions of data set [5]: ester bond; 18-membered ring; EDCI/HOBT/DIPEA; DCM; 6.8 mM.

T1 sequence (P01116 1-188 isoform P01116-2 G12C): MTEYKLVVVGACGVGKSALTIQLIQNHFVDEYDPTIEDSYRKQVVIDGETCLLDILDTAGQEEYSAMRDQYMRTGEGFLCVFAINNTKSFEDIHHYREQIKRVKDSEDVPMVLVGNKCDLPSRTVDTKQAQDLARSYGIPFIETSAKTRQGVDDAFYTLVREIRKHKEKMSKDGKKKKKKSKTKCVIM
T1 sequence (P62937 whole entry): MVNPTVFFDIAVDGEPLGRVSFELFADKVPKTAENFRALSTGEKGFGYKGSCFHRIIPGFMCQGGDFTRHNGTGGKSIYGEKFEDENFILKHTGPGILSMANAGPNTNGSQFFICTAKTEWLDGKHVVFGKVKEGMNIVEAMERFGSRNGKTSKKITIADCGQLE
Chain of K-Ras G13C (P01116 1-188 isoform P01116-2 G13C): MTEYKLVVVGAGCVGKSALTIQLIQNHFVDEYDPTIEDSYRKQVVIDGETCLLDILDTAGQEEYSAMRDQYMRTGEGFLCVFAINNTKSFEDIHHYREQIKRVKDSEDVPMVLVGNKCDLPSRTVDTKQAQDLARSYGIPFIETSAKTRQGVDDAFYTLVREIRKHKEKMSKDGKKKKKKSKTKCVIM
Chain of K-Ras G13C (P62937 whole entry): as the sequence (P62937 whole entry) above

With `CCn1c(-c2cccnc2[C@H](C)OC)c2c3cc(ccc31)N1CCS[C@@H](C[C@H](NC(=O)[C@@H](COC3CN(C(=O)C#CC(C)(C)N(C)C)C3)C(C)C)C(=O)N3CCC[C@H](N3)C(=O)OCC(C)(C)C2)C1` (atropisomer, axis not shown) [Example A175], the IC50 in data set [1] is greater than 1.5 µM.
For `C=CC(=O)N1CCN(c2nc(=O)n(-c3c(C)ccnc3C(C)C)c3nc(-c4c(O)cccc4F)c(F)cc23)[C@@H](C)C1` [AMG510], the “sensitivity of cell line SW1573” value in data set [2] is given as “insensitive”.
For `CCn1c(-c2cccnc2[C@H](C)OC)c2c3cc(ccc31)N1CCO[C@@H](C[C@H](NC(=O)[C@H](C(C)C)N(C)C(=O)N3CCC4(CC3)CN(C(=O)/C=C/CF)C4)C(=O)N3CCC[C@H](N3)C(=O)OCC(C)(C)C2)C1` (atropisomer, axis not shown) [Example A128], the IC50 in data set [3] and in data set [4] was greater than 1 µM in each case.
As for “tert-butyl ((6^3S,4S,Z)-1^1-ethyl-1^2-(2-((S)-1-methoxyethyl)pyridin-3-yl)-10,10-dimethyl-5,7-dioxo-6^1,6^2,6^3,6^4,6^5,6^6-hexahydro-1^1H-8-oxa-2(5,3)-oxadiazola-1(5,3)-indola-6(1,3)-pyridazinacycloundecaphane-4-yl)carbamate”, the ring closure, isolated yield in data set [5] turned out to be 18%.
In the case of `C=CC(=O)N1CCOC2(CCN(C(=O)N(C)[C@H](C(=O)N[C@H]3Cc4nccc(n4)-c4ccc5c(c4)c(c(-c4cccnc4[C@H](C)OC)n5CC)CC(C)(C)COC(=O)[C@@H]4CCCN(N4)C3=O)C(C)C)CC2)C1` (atropisomer, axis not shown) [Example A191], the IC50 in data set [3] and in data set [4] was greater than 1 µM each time.
Turning to `CCn1c(-c2cccnc2[C@H](C)OC)c2c3cc(ccc31)-c1cccc(c1)C[C@H](NC(=O)[C@@H](COC1CN(C(=O)C#CC(C)(C)N(C)C)C1)N(C)C)C(=O)N1CCC[C@H](N1)C(=O)OCC(C)(C)C2` (atropisomer, axis not shown) [Example A169], the IC50 in data set [1] was greater than 1.5 µM.
Turning to `CCn1c(-c2cccnc2[C@H](C)OC)c2c3cc(ccc31)C1=CCCN(C1)C[C@H](NC(=O)[C@H](C(C)C)N(C)C(=O)N1CCC3(CCN(C(=O)/C=C/CN(C)C)C3)CC1)C(=O)N1CCC[C@H](N1)C(=O)OCC(C)(C)C2` (atropisomer, axis not shown) [Example A192], the IC50 in data set [3] and in data set [4] was greater than 1 µM each time.
Consider `CCn1c(-c2cccnc2[C@H](C)OC)c2c3cc(ccc31)N1CCS[C@@H](C[C@H](NC(=O)[C@@H](COC3CN(C(=O)C#CC(C)(C)N(C)C)C3)N(C)C)C(=O)N3CCC[C@H](N3)C(=O)OCC(C)(C)C2)C1` (atropisomer, axis not shown) [Example A171], for which, in data set [1], the 50% inhibitory concentration (IC50) was greater than 1.5 µM.

Source of the values: patent US20230106174A1, “RAS INHIBITORS” (Revolution Medicines, Inc., priority 2021, published 2023).
